Structures are written as SMILES.

Experiment [1] concerns the target cAMP-dependent protein kinase catalytic subunit alpha (Bos taurus) (UniProt P00517). Briefly: The assay is based on the kinase-bound labeled fluorescent probe can be displaced by competitive inhibitors, which can be registered by measurement of the resulting change in fluorescence properties of the solution. The binding curves were fitted using GraphPad Prism version 4.03 using sigmoidal dose-respons. The note with it: pH 7.5.

Experiment [2] shares this target. Kind of experiment: The IC50 values of the inhibitors corresponding to the concentration of the inhibitor decreasing the enzyme activity 50% were measured using fluorescent-labeled substrate. The phosphorylation reaction was initiated by the addition of ATP. At fixed time points, the reaction was analyzed by normal phase TLC. The visualization and quantification.
For experiment [3], the target named is RAC-gamma serine/threonine-protein kinase (Homo sapiens, UniProt Q9Y243). Briefly: Fluorometric TLC Kinase Assay.
RAC-gamma serine/threonine-protein kinase, sequence (Q9Y243 whole entry): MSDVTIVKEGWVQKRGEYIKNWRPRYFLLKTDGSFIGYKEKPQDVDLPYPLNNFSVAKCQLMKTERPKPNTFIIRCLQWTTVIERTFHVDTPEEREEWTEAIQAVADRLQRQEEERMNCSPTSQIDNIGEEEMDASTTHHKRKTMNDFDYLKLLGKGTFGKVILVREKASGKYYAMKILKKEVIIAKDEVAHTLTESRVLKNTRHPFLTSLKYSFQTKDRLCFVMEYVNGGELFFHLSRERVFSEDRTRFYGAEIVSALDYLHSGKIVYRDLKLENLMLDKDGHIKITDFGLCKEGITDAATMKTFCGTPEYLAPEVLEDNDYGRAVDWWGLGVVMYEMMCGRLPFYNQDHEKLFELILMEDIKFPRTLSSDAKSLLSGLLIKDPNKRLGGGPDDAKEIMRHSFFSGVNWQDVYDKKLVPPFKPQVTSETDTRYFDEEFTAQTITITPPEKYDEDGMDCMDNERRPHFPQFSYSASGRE

For the compound `O=S(=O)(NCCNC/C=C/c1ccc(Br)cc1)c1cccc2cnccc12`, in experiment [1], the affinity, expressed as Kd, was 23 nM.
On to `N=C(N)NCCC[C@@H](NC(=O)[C@@H](CCCNC(=N)N)NC(=O)[C@@H](CCCNC(=N)N)NC(=O)[C@@H](CCCNC(=N)N)NC(=O)[C@@H](CCCNC(=N)N)NC(=O)[C@@H](CCCNC(=N)N)NC(=O)CCCCCNC(=O)[C@H]1O[C@@H](n2cnc3c(N)ncnc32)[C@H](O)[C@@H]1O)C(N)=O`, for which, in experiment [2], the IC50 (usually the concentration that inhibits the measured activity by half) was 8.3 nM.
Turning to `C[C@@H](NC(=O)CCCCCNC(=O)[C@@H]1C[C@@H](O)[C@H](n2cnc3c(N)ncnc32)C1)C(=O)NCCCCCC(=O)N[C@H](CCCNC(=N)N)C(=O)N[C@H](CCCNC(=N)N)C(N)=O` [6-{[(1S,3R,4R)-3-(6-amino-9H-purin-9-yl)-4-hydroxycyclopentyl]formamido}-N-[(1R)-1-[(5-{[(1R)-4-carbamimidamido-1-{[(1R)-4-carbamimidamido-1-carbamoylbutyl]carbamoyl}butyl]carbamoyl}pentyl)carbamoyl]ethyl]hexanamide], the midpoint of inhibition in experiment [3], the IC50, lay at 2040 nM.
In turn, `NC(=O)[C@@H](CCCN=C(N)N)NC(=O)[C@@H](CCCN=C(N)N)NC(=O)[C@@H](CCCN=C(N)N)NC(=O)[C@@H](CCCN=C(N)N)NC(=O)[C@@H](CCCN=C(N)N)NC(=O)[C@@H](CCCN=C(N)N)NC(=O)CCCCCNC(=O)[C@@H]1C[C@@H](O)[C@H](n2cnc3c(N)ncnc32)C1` [6-{[(1S,3R,4R)-3-(6-amino-9H-purin-9-yl)-4-hydroxycyclopentyl]formamido}-N-[(1R)-4-carbamimidamido-1-{[(1R)-4-carbamimidamido-1-{[(1R)-4-carbamimidamido-1-{[(1R)-4-carbamimidamido-1-{[(1R)-4-carbamimidamido-1-{[(1R)-4-carbamimidamido-1-carbamoylbutyl]carbamoyl}butyl]carbamoyl}butyl]carbamoyl}butyl]carbamoyl}butyl]carbamoyl}butyl]hexanamide] registered an IC50 in experiment [2] of 2.41 nM. This counts as single-digit nanomolar.
`NC(=O)[C@H](Cc1ccc(C(=O)c2ccccc2)cc1)NC(=O)CCCCCNC(=O)[C@H]1O[C@@H](n2cnc3c(N)ncnc32)[C@H](O)[C@@H]1O` [6-{[(2S,3S,4R,5R)-5-(6-amino-9H-purin-9-yl)-3,4-dihydroxyoxolan-2-yl]formamido}-N-[(1S)-2-(4-benzoylphenyl)-1-carbamoylethyl]hexanamide]: the Kd (usually the equilibrium constant for the complex coming apart) in experiment [1] is more than 100000 nM.
Same read-out and setting: then `N=C(N)NCCC[C@@H](NC(=O)[C@@H](CCCNC(=N)N)NC(=O)[C@@H](CCCNC(=N)N)NC(=O)[C@@H](CCCNC(=N)N)NC(=O)[C@@H](CCCNC(=N)N)NC(=O)[C@@H](CCCNC(=N)N)NC(=O)CCCCCNC(=O)[C@@H](CCCCN)NC(=O)CCCCCNC(=O)[C@H]1O[C@@H](n2cnc3c(N)ncnc32)[C@H](O)[C@@H]1O)C(N)=O` [(2R)-6-amino-2-(6-{[(2S,3S,4R,5R)-5-(6-amino-9H-purin-9-yl)-3,4-dihydroxyoxolan-2-yl]formamido}hexanamido)-N-(5-{[(1R)-4-carbamimidamido-1-{[(1R)-4-carbamimidamido-1-{[(1R)-4-carbamimidamido-1-{[(1R)-4-carbamimidamido-1-{[(1R)-4-carbamimidamido-1-{[(1R)-4-carbamimidamido-1-carbamoylbutyl]carbamoyl}butyl]carbamoyl}butyl]carbamoyl}butyl]carbamoyl}butyl]carbamoyl}butyl]carbamoyl}pentyl)hexanamide], with less than 0.5 nM.
Turning to `NC(=O)[C@@H](CCCN=C(N)N)NC(=O)[C@@H](CCCN=C(N)N)NC(=O)[C@@H](CCCN=C(N)N)NC(=O)[C@@H](CCCN=C(N)N)NC(=O)[C@@H](CCCN=C(N)N)NC(=O)[C@@H](CCCN=C(N)N)NC(=O)CCCCCNCCNS(=O)(=O)c1cccc2cnccc12` [N-[(1R)-4-carbamimidamido-1-{[(1R)-4-carbamimidamido-1-{[(1R)-4-carbamimidamido-1-{[(1R)-4-carbamimidamido-1-{[(1R)-4-carbamimidamido-1-{[(1R)-4-carbamimidamido-1-carbamoylbutyl]carbamoyl}butyl]carbamoyl}butyl]carbamoyl}butyl]carbamoyl}butyl]carbamoyl}butyl]-6-{[2-(isoquinoline-5-sulfonamido)ethyl]amino}hexanamide], the figures for the IC50 in experiment [3] and in experiment [2] were 30.7 nM and 5.3 nM, respectively.

Values taken from BindingDB's records for doi:10.1021/jm800797n (University of Tartu, 2009).
